{"source": "patent US12528774B2", "about": "“Thiosemicarbazone compounds and uses thereof” (The Regents of the University of California, priority 2019, dated 2026)", "key": {"MIAPACA2 cells": {"system": "MIAPACA2 cells", "test": "Proliferation assay (CellTiter-Glo, 72 h) in MIAPACA2 cells", "type": "cell-based, human"}, "MIAPACA2 PDAC cells": {"system": "MIAPACA2 PDAC cells", "test": "Intracellular copper measurement by ICP-MS", "type": "cell-based, human", "settings": "HCT13 25 nM, 24 h, with and without 20 μM Cu(II)", "description": "FIG. 1A: IC50 values in a panel of human and mouse prostate cancer (PC)(cell lines CF-2, LNCaP, 22Rv1, RM-1, MyC CaP); small cell lung carcinoma (SCLC)(cell lines NCI-H1963, NCI-H146, NCI-H526); pancreatic ductal adenocarcinoma (PDAC)(CFPAC1, SW1990, HS766T, PANC0203, PANC0813, ASPC1, HPAFII, PATU8902, PANC0327, PANC1, YAPC, L36PL, XWR200, HUPT4, A13A, SUIT2, DAN-G, BxPC3, HPAC, PSN1, SU8686, KP4662, MIAPACA2, PATU8988T); and leukemia (cell lines KG-1, TF-1, Jurkat, MOLT-4, p185-R, MV4-11) models treated with HCT13+Cu(II) (20 μM) for 72 h measured by CellTiterGlo. […] (mean±SD, n=2, one-way ANOVA corrected for multiple comparisons by Bonferroni adjustment, * P<0.05; **P<0.01; ***P<0.001).\nThe MIAPACA2 cell line, a well-characterized PDAC model that was highly sensitive to HCT13 treatment, was used to further investigate the mechanism of action of our lead compound. MIAPACA2 proliferation was measured in response to HCT13 in the presence and absence of 20 μM CuCl2 (Cu(II)), as well as in response to 20 μM Cu(II) alone (FIG. 1B). […] To probe whether HCT13 was acting as an ionophore, intracellular copper levels were measured using inductively coupled plasma mass spectrometry (ICP-MS). […]\nIntracellular Cu(II) measurement. […] The concentration of Cu(II) was measured using Inductive Coupled Plasma Mass Spectrometry (ICP-MS) using standard procedure."}, "[1]": {"system": "electron transport chain complexes of isolated mitochondria", "test": "Electron flow assay in isolated mitochondria", "type": "biochemical, mouse", "settings": "HCT-13 + Cu(II) 20 μM", "experimental": "FIG. 3A: Mito Stress Test of MIAPACA2 PDAC cells treated with HCT13 (25 nM)+Cu(II) (20 μM) for 24h. FIG. 3B: electron flow assay in isolated mitochondria treated with HCT-13 (100 nM)+Cu(II) (20 μM) for 1h. FIG. 3C: viability of 143 BTK parental (wild type, WT) and ρ0 cells after 48h of the indicated HCT13 concentration+Cu(II) (20 μM) treatment, assessed with Trypan Blue Staining. FIG. 3D: 48h cell cycle histogram and plots of S-phase arrest plots in 143 BTK WT and 143 BTK ρ0 cells at 24, 48 and 72h following treatment with indicated concentrations of HCT13+Cu(II)(20 μM). (mean±SD, n=2, one-way ANOVA corrected for multiple comparisons by Bonferroni adjustment, * P<0.05; ** P<0.01; *** P<0.001). […]\nMito Stress Test and Electron Flow Assay: All oxygen consumption rate (OCR) was measured using a XF24 Analyzer (Agilent) and normalized per μg protein. […] OCR was measured before (total respiration) and after the sequential injection of 1 μM oligomycin (complex V inhibitor), 0.75 μM FCCP (uncoupler), and 1 μM of rotenone and myxothiazol (complex I and III inhibitors, respectively), as described previously (1). Mitochondrial respiration was calculated by subtracting the non-mitochondrial respiration left after rotenone and myxothiazol injection. […] OCR was measured before and after the sequential injections described in the previous paragraph. […]"}}, "data": [{"compound": "CN(C)C(=S)N/N=C/c1nccc2cc(F)ccc12", "note": "(mixture of isomers) [HCT13, (E)-2-((6-Fluoroisoquinolin-1-yl)methylene)-N,N-dimethylhydrazine-1-carbothioamide and (Z)-2-((6-Fluoroisoquinolin-1-yl)methylene)-N,N-dimethylhydrazine-1-carbothioamide]", "values": [{"measurement": "antiproliferative potency with Fe(II) supplementation", "setting": "MIAPACA2 cells; Fe(II) 20 μM", "value": "diminished but still active"}, {"measurement": "antiproliferative potency with Zn(II) supplementation", "setting": "MIAPACA2 cells; Zn(II) 20 μM", "value": "largely inactive"}, {"measurement": "intracellular copper levels", "setting": "MIAPACA2 PDAC cells", "value": "increased"}, {"measurement": "mitochondrial ETC complex activity", "setting": "[1]", "value": "decreased activity of complexes I and II"}, {"measurement": "mitochondrial ETC complex activity", "setting": "[1]; listed as HCT-13", "value": "ETC Complex 1 was most dramatically affected"}]}]}
